Data as given in patent EP0185020B1, “NI[…] PREPARATION THEREOF AND UTILIZATION THEREOF IN ANTICANCEROUS CHEMIOTHERAPY” (CENTRE NATIONAL DE LA RECHERCHE SCIENTIFIQUE (CNRS), priority 1984, dated 1985).

Tests used:
[1] = tested on: Mélano-carcinome B 16 (implanté en sous-cutané); settings: Mélano-carcinome B 16 s.c.; 30 mg/kg I.P., jours 1,5,9; cited from earlier work
[2] = tested on: Carcinome du côlon (côlon 26) (implanté en sous-cutané); settings: Carcinome du côlon (côlon 26) s.c.; 30 mg/kg I.P., jours 1,5,9; cited from earlier work
[3] = tested on: Carcinome pulmonaire de Lewis (implanté en sous-cutané); settings: 30 mg/kg I.P., jours 1,5,9; cited from earlier work
[4] = tested on: leucémie L 1210 greffée i.p.; test: Antitumour activity on L1210 leukaemia grafted i.p. in mice, mixtures A1 A2 and B1 B2 (INSERM Unit 71, Example 12); format: in vivo, souris B6D2F1/IFFA CREDO; settings: J1, J5, J9
Text: Au jour J: 0, des souris mâles B6D2F1 âgées de trois mois reçoivent par voie intrapéritonéale 10^5 cellules de la souche leucémique L 1210. Les animaux sont répartis en lots de 8 à 10 animaux pour les groupes témoins et de 6 à 8 animaux pour les groupes traités. Aux jours J : 1, J : 5, J : 9, les animaux reçoivent par voie intrapéritonéale ou intraveineuse le traitement à différentes doses. La CNCC est administrée en suspension dans l'huile d'olive. Les produits selon l'invention sont administrés dans du sérum physiologique. La mortalité est enregistrée tous les jours. La médiane de survie des animaux traités et des animaux témoins a été déterminée. Les résultats sont considérés comme positifs lorsque l'index I = [formula] est supérieur à 125.
La valeur ∞ signifie que 50 à 100% des animaux sont survivants au jour J : 90.
L'activité cytostatique sur la leucémie L 1210 des produits selon l'invention a été évaluée chez des souris B6D2F1/IFFA CREDO d'après le protocole précédemment décrit.
Ont été administrés par voie intrapéritonéale (i.p.) soit le mélange A, A2 dans les proportions suivantes A, (70%) et A2 (30%), soit le mélange B, B2 dans les mêmes proportions, soit la CNCC aux doses suivantes: 10 mg/kg, 20 mg/kg, 30 mg/kg, 40 mg/kg et 50 mg/kg. Les résultats sont présentés sur le tableau Il et appellent les commentaires suivants: • - très bonne efficacité du mélange A, A2 aux doses de 20 mg/kg, 30 mg/kg et 40 mg/kg et du mélange B, B2 aux doses de 20 mg/kg, 30 mg/kg, 40 mg/kg et 50 mg/kg. […] De plus, le nombre de survivants à 90 jours est plus grand chez les animaux ayant reçu les produits selon l'invention par rapport aux animaux ayant reçu la CNCC. […]

[5] = Solubility in solvents allowing intravenous administration; format: physicochemical; settings: solvants autorisant l'administration par voie intraveineuse
Text: Ont été administrés par voie intraveineuse (i.v.) dans la veine caudale, les mélanges A, A2 et B, B2 dans les proportions et aux doses utilisées dans a). La comparaison avec la CNCC pour cette voie d'administration est impossible en raison de l'insolubilité de ce composé dans les solvants autorisant l'administration par voie intraveineuse. Les résultats sont présentés sur le tableau III.

[6] = tested on: M 555 ovarienne (implanté en sous-cutané); settings: M 555 ovarienne s.c.; 30 mg/kg I.P., jours 1,5,9; cited from earlier work
[7] = tested on: Adénocarcinome mammaire TM2 (implanté en sous-cutané); settings: 30 mg/kg I.P., jours 1,5,9; cited from earlier work
[8] = tested on: Fibrosarcome I.C.I.G. C1 (implanté en sous-cutané); set-up: key: N.S.: Non significatif; ∞: 50% en plus des animaux traités sont guéris; settings: 30 mg/kg I.P., jours 1,5,9; cited from earlier work
[9] = tested on: Gliome 26 (implanté en sous-cutané); settings: Gliome 26 s.c.; 30 mg/kg I.P., jours 1,5,9; cited from earlier work
[10] = tested on: Leucémie L 1210 (greffée par voie i.c.); settings: Leucémie L 1210 i.c.; 30 mg/kg I.P., jours 1,5,9; cited from earlier work

For O=NN(CCCl)C(=O)NCCSSCCNC(=O)N(CCCl)N=O [CNCC], the “Augmentation de la durée de survie (I.L.S.: T/C×100)” value (from here on “Augmentation de la durée de survie”) [1] is given as 200, the “Augmentation de la durée de survie” value [2] is given as “∞ (50% en plus des animaux traités sont guéris)” and the “Augmentation de la durée de survie” value [3] is given as “∞ (50% en plus des animaux traités sont guéris)”. For the same compound, the “Nombre de survivants à 90 jours” value ([4]; 10 mg/kg) was 0/6, the “T/C × 100” value ([4]; 10 mg/kg) was 250 and the “Nombre de survivants à 90 jours” value ([4]; 20 mg/kg) was 6/6. For the same compound, the “T/C × 100” value ([4]; 20 mg/kg) was “∞ (50 à 100% des animaux survivants à 90 jours)”, the “Nombre de survivants à 90 jours” value ([4]; 30 mg/kg) was 6/6 and the “T/C × 100” value ([4]; 30 mg/kg) was “∞ (50 à 100% des animaux survivants à 90 jours)”. The “Nombre de survivants à 90 jours” value ([4]; 40 mg/kg) was 3/6, the “T/C × 100” value ([4]; 40 mg/kg) was “∞ (50 à 100% des animaux survivants à 90 jours)” and the “Nombre de survivants à 90 jours” value ([4]; 50 mg/kg) was 0/6. The “T/C × 100” value ([4]; 50 mg/kg) was 125, the “solubilité, in words” value [5] was “insolubilité” and the “Augmentation de la durée de survie” value [6] was greater than 254. For the same compound, the “Augmentation de la durée de survie” value [7] was 185, the “Augmentation de la durée de survie” value [8] was “N.S” and the “Augmentation de la durée de survie” value [9] was 200. The “Augmentation de la durée de survie” value [10] was “∞ (50% en plus des animaux traités sont guéris)”.
